By IC50 is commonly meant the concentration needed to halve the response being measured. The low end stands for higher potency, the high end for lower potency.

In ChEMBL document CHEMBL1144311, “Synthesis of argentatin A derivatives as growth inhibitors of human cancer cell lines in vitro” (Bioorg Med Chem Lett, 2005) one finds IC50 data, which are given here for 10 compounds.

Structures are written as SMILES. Some results are limits rather than exact numbers.

The subject of one test is U-251. The test can be described thus: Inhibitory concentration towards human central nervous system glioblastoma cell line (U251) was determined.
Conditions: not given
The class given is functional, cell-based.
Turning to `CC1(C)C(O)=C(C=O)C[C@]23C[C@]24CC[C@]2(C)C([C@]5(C)CC[C@H](C(C)(C)O)O5)C(O)C[C@@]2(C)C4CCC13` (stereo not given in full), the half-maximal inhibitory concentration (IC50) worked out at 5.88 µM.
Turning to `CC1(C)C(=O)CC[C@]23C[C@]24CC[C@]2(C)C([C@]5(C)CC[C@H](C(C)(C)O)O5)[C@@H](O)C[C@@]2(C)C4CCC13` (stereo not given in full), it took 27.3 µM to reach half-maximal inhibition (IC50).
The compound `CC1(C)c2oncc2C[C@]23C[C@]24CC[C@]2(C)C([C@]5(C)CC[C@H](C(C)(C)O)O5)[C@@H](O)C[C@@]2(C)C4CCC13` (stereo not given in full) yielded an IC50 of 11.3 µM.
The compound `CC(=O)O[C@H]1C[C@@]2(C)C3CCC4C(C)(C)C(=O)CC[C@@]45C[C@@]35CC[C@]2(C)C1[C@]1(C)CC[C@H](C(C)(C)OC(C)=O)O1` (stereo not given in full) yielded an IC50 of 30.5 µM.
Same read-out and setting: as for `CC1(C)C(=O)CC[C@]23C[C@]24CC[C@]2(C)C([C@]5(C)CCC(=O)O5)C(=O)C[C@@]2(C)C4CCC13` (stereo not given in full), the figure is more than 100 µM; as for `CC1(C)C(=O)C=C[C@]23C[C@]24CC[C@]2(C)C([C@]5(C)CC[C@H](C(C)(C)O)O5)[C@@H](O)C[C@@]2(C)C4CCC13` (stereo not given in full), 18.9 µM.
`CC(=O)O[C@H]1C[C@@]2(C)C3CCC4C(C)(C)/C(=N\O)CC[C@@]45C[C@@]35CC[C@]2(C)C1[C@]1(C)CC[C@H](C(C)(C)OC(C)=O)O1` (stereo not given in full) returned a concentration for half-maximal inhibition (IC50) of 21.4 µM.
On the same count and under the same terms, with `CC(=O)OC1C[C@@]2(C)C3CCC4C(C)(C)C(=O)C=C[C@@]45C[C@@]35CC[C@]2(C)C1[C@]1(C)CC[C@H](C(C)(C)OC(C)=O)O1` (stereo not given in full) the figure was 58.4 µM; with `CC1(C)C(=O)[C@H](Br)C[C@]23C[C@]24CC[C@]2(C)C([C@]5(C)CC[C@H](C(C)(C)O)O5)[C@@H](O)C[C@@]2(C)C4CCC13` (stereo not given in full), 13.9 µM; with `CC1(C)/C(=N/O)C=C[C@]23C[C@]24CC[C@]2(C)C([C@]5(C)CC[C@H](C(C)(C)O)O5)[C@@H](O)C[C@@]2(C)C4CCC13` (stereo not given in full), 26.8 µM.

In the next test the test system is PC-3. As to the kind of experiment: Inhibitory concentration towards human prostatic adenocarcinoma cell line (PC-3) was determined. Type of test: functional, cell-based.
Conditions: not given
`CC1(C)C(O)=C(C=O)C[C@]23C[C@]24CC[C@]2(C)C([C@]5(C)CC[C@H](C(C)(C)O)O5)C(O)C[C@@]2(C)C4CCC13` (stereo not given in full): 5.69 µM corresponded to half-maximal inhibition (IC50).
Compound `CC1(C)C(=O)CC[C@]23C[C@]24CC[C@]2(C)C([C@]5(C)CC[C@H](C(C)(C)O)O5)[C@@H](O)C[C@@]2(C)C4CCC13` (stereo not given in full) displayed an IC50 of 20.2 µM.
In the case of `CC1(C)c2oncc2C[C@]23C[C@]24CC[C@]2(C)C([C@]5(C)CC[C@H](C(C)(C)O)O5)[C@@H](O)C[C@@]2(C)C4CCC13` (stereo not given in full), the IC50 came out at 13 µM.
In the case of `CC(=O)O[C@H]1C[C@@]2(C)C3CCC4C(C)(C)C(=O)CC[C@@]45C[C@@]35CC[C@]2(C)C1[C@]1(C)CC[C@H](C(C)(C)OC(C)=O)O1` (stereo not given in full), the IC50 is 22.7 µM.
In turn, `CC1(C)C(=O)CC[C@]23C[C@]24CC[C@]2(C)C([C@]5(C)CCC(=O)O5)C(=O)C[C@@]2(C)C4CCC13` (stereo not given in full) returned an IC50 of more than 100 µM.
In the case of `CC1(C)C(=O)C=C[C@]23C[C@]24CC[C@]2(C)C([C@]5(C)CC[C@H](C(C)(C)O)O5)[C@@H](O)C[C@@]2(C)C4CCC13` (stereo not given in full), the half-inhibitory concentration (IC50) came to 15.3 µM.
`CC(=O)O[C@H]1C[C@@]2(C)C3CCC4C(C)(C)/C(=N\O)CC[C@@]45C[C@@]35CC[C@]2(C)C1[C@]1(C)CC[C@H](C(C)(C)OC(C)=O)O1` (stereo not given in full) gave an IC50 of 12.6 µM.
The compound `CC(=O)OC1C[C@@]2(C)C3CCC4C(C)(C)C(=O)C=C[C@@]45C[C@@]35CC[C@]2(C)C1[C@]1(C)CC[C@H](C(C)(C)OC(C)=O)O1` (stereo not given in full) returned an IC50 of 13.9 µM.
The compound `CC1(C)/C(=N/O)C=C[C@]23C[C@]24CC[C@]2(C)C([C@]5(C)CC[C@H](C(C)(C)O)O5)[C@@H](O)C[C@@]2(C)C4CCC13` (stereo not given in full) had an IC50 of 46.9 µM.

The test system of another test is PC-3. As to the kind of experiment: Inhibitory concentration against human prostatic adenocarcinoma cell line (PC-3) was determined. The class given is functional, cell-based.
Conditions: not given
In the case of `CC1(C)C(=O)[C@H](Br)C[C@]23C[C@]24CC[C@]2(C)C([C@]5(C)CC[C@H](C(C)(C)O)O5)[C@@H](O)C[C@@]2(C)C4CCC13` (stereo not given in full), the IC50 came to 11.1 µM.

A further test relates to HCT-15. The test can be described thus: Inhibitory concentration towards human colon adenocarcinoma cell line (HCT-15) was determined. The class given is functional, cell-based.
Conditions: not given
`CC1(C)C(O)=C(C=O)C[C@]23C[C@]24CC[C@]2(C)C([C@]5(C)CC[C@H](C(C)(C)O)O5)C(O)C[C@@]2(C)C4CCC13` (stereo not given in full) had an IC50 of 9.82 µM.
`CC1(C)C(=O)CC[C@]23C[C@]24CC[C@]2(C)C([C@]5(C)CC[C@H](C(C)(C)O)O5)[C@@H](O)C[C@@]2(C)C4CCC13` (stereo not given in full) had an IC50 of 31.7 µM.
The same measure, in the same setting: with `CC1(C)c2oncc2C[C@]23C[C@]24CC[C@]2(C)C([C@]5(C)CC[C@H](C(C)(C)O)O5)[C@@H](O)C[C@@]2(C)C4CCC13` (stereo not given in full) the figure was 10.2 µM.
Turning to `CC(=O)O[C@H]1C[C@@]2(C)C3CCC4C(C)(C)C(=O)CC[C@@]45C[C@@]35CC[C@]2(C)C1[C@]1(C)CC[C@H](C(C)(C)OC(C)=O)O1` (stereo not given in full), the half-inhibitory concentration (IC50) came out at 40.7 µM.
`CC1(C)C(=O)CC[C@]23C[C@]24CC[C@]2(C)C([C@]5(C)CCC(=O)O5)C(=O)C[C@@]2(C)C4CCC13` (stereo not given in full) registered an IC50 of more than 100 µM.
As for `CC1(C)C(=O)C=C[C@]23C[C@]24CC[C@]2(C)C([C@]5(C)CC[C@H](C(C)(C)O)O5)[C@@H](O)C[C@@]2(C)C4CCC13` (stereo not given in full), it took 16.7 µM to reach half-maximal inhibition (IC50).
The compound `CC(=O)O[C@H]1C[C@@]2(C)C3CCC4C(C)(C)/C(=N\O)CC[C@@]45C[C@@]35CC[C@]2(C)C1[C@]1(C)CC[C@H](C(C)(C)OC(C)=O)O1` (stereo not given in full) showed an IC50 of 28.9 µM.
Same read-out and setting: with `CC(=O)OC1C[C@@]2(C)C3CCC4C(C)(C)C(=O)C=C[C@@]45C[C@@]35CC[C@]2(C)C1[C@]1(C)CC[C@H](C(C)(C)OC(C)=O)O1` (stereo not given in full) the figure was more than 100 µM.
Consider `CC1(C)C(=O)[C@H](Br)C[C@]23C[C@]24CC[C@]2(C)C([C@]5(C)CC[C@H](C(C)(C)O)O5)[C@@H](O)C[C@@]2(C)C4CCC13` (stereo not given in full), for which the IC50 was found to be 3.23 µM.
`CC1(C)/C(=N/O)C=C[C@]23C[C@]24CC[C@]2(C)C([C@]5(C)CC[C@H](C(C)(C)O)O5)[C@@H](O)C[C@@]2(C)C4CCC13` (stereo not given in full) registered an IC50 of 35.8 µM.

A further test has as its system K562. The test can be described thus: Inhibitory concentration towards chronic myelogenous leukemic cell line (K562) was determined. The class given is functional, cell-based. The conditions noted are these: Homo sapiens.
With `CC1(C)C(O)=C(C=O)C[C@]23C[C@]24CC[C@]2(C)C([C@]5(C)CC[C@H](C(C)(C)O)O5)C(O)C[C@@]2(C)C4CCC13` (stereo not given in full), the concentration for half-maximal inhibition (IC50) turned out to be 14.4 µM.
On the same count and under the same terms, with `CC1(C)C(=O)CC[C@]23C[C@]24CC[C@]2(C)C([C@]5(C)CC[C@H](C(C)(C)O)O5)[C@@H](O)C[C@@]2(C)C4CCC13` (stereo not given in full) the figure was 38.6 µM.
Compound `CC1(C)c2oncc2C[C@]23C[C@]24CC[C@]2(C)C([C@]5(C)CC[C@H](C(C)(C)O)O5)[C@@H](O)C[C@@]2(C)C4CCC13` (stereo not given in full) showed an IC50 of 11 µM.
The compound `CC(=O)O[C@H]1C[C@@]2(C)C3CCC4C(C)(C)C(=O)CC[C@@]45C[C@@]35CC[C@]2(C)C1[C@]1(C)CC[C@H](C(C)(C)OC(C)=O)O1` (stereo not given in full) registered an IC50 of 68.4 µM.
`CC1(C)C(=O)CC[C@]23C[C@]24CC[C@]2(C)C([C@]5(C)CCC(=O)O5)C(=O)C[C@@]2(C)C4CCC13` (stereo not given in full) gave an IC50 of more than 100 µM.
The compound `CC1(C)C(=O)C=C[C@]23C[C@]24CC[C@]2(C)C([C@]5(C)CC[C@H](C(C)(C)O)O5)[C@@H](O)C[C@@]2(C)C4CCC13` (stereo not given in full) yielded an IC50 of 16.8 µM.
`CC(=O)O[C@H]1C[C@@]2(C)C3CCC4C(C)(C)/C(=N\O)CC[C@@]45C[C@@]35CC[C@]2(C)C1[C@]1(C)CC[C@H](C(C)(C)OC(C)=O)O1` (stereo not given in full) came in with an IC50 of 15.2 µM.
The compound `CC(=O)OC1C[C@@]2(C)C3CCC4C(C)(C)C(=O)C=C[C@@]45C[C@@]35CC[C@]2(C)C1[C@]1(C)CC[C@H](C(C)(C)OC(C)=O)O1` (stereo not given in full) displayed an IC50 of more than 100 µM.
As for `CC1(C)C(=O)[C@H](Br)C[C@]23C[C@]24CC[C@]2(C)C([C@]5(C)CC[C@H](C(C)(C)O)O5)[C@@H](O)C[C@@]2(C)C4CCC13` (stereo not given in full), the IC50 worked out at 4.34 µM.
`CC1(C)/C(=N/O)C=C[C@]23C[C@]24CC[C@]2(C)C([C@]5(C)CC[C@H](C(C)(C)O)O5)[C@@H](O)C[C@@]2(C)C4CCC13` (stereo not given in full): half-maximal inhibition (IC50) required 44.4 µM.
